Tests used:
[1] = system: SMARCA4 mutated cancer cells; settings: SMARCA 2/4 bromodomain inhibitors; literature statement; cited from earlier work
SMARCA2 = target: T1, SMARCA2 (Homo sapiens, UniProt P51531); assay: SMARCA2 HiBiT degradation assay in HeLa cells; format: cell-based; settings: 18 hours incubation, Nano-Glo HiBiT Lytic detection
T1 construct: SMARCA2-HiBiT knock-in Hela monoclonal cell (CS302366) and SMARCA4-HiBiT knock-in Hela monoclonal cell (CS3023226) were purchased from Promega; host or cells: HeLa SMARCA2-HiBiT knock-in monoclonal cells (heterozygous knock-in)
T1 sequence (P51531 whole entry): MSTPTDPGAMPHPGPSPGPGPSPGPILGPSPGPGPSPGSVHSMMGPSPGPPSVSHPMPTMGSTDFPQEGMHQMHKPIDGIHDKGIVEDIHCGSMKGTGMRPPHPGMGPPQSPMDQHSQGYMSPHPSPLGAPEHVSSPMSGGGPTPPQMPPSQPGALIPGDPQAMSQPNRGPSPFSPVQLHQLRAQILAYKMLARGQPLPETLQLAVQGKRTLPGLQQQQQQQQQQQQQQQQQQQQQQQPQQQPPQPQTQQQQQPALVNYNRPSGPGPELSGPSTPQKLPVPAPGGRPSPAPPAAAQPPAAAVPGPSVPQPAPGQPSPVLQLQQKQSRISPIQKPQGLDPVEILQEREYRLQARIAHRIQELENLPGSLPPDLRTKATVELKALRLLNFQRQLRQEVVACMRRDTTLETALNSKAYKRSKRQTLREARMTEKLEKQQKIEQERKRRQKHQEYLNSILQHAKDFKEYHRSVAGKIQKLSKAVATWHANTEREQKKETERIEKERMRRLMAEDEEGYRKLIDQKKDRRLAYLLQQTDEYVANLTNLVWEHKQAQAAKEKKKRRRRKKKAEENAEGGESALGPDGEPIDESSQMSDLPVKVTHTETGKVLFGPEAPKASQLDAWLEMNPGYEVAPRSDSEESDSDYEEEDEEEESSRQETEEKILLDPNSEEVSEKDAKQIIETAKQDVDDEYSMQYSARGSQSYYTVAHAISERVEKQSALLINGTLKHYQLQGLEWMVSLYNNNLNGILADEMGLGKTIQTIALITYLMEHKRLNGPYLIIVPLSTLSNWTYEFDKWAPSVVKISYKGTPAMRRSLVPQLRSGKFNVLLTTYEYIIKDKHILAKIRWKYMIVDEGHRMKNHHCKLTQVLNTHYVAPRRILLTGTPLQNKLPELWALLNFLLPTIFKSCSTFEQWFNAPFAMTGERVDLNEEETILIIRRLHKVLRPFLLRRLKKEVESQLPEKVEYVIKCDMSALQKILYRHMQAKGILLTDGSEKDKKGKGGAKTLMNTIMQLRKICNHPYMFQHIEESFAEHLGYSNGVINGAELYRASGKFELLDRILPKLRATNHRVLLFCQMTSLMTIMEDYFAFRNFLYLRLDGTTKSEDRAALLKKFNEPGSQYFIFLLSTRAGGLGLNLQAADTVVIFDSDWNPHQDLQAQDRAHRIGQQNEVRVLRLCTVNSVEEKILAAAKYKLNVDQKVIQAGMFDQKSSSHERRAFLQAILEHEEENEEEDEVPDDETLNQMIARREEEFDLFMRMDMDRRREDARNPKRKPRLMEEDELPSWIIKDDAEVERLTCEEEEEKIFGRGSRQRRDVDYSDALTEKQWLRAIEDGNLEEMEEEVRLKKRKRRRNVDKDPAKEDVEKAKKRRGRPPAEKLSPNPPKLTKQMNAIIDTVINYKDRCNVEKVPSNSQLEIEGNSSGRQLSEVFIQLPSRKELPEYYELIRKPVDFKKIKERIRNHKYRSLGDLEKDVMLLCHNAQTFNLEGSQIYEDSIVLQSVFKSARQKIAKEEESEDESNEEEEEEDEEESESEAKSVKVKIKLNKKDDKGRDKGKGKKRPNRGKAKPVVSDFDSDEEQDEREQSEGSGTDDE
Procedure: (§1) Example A. SMARCA2 HiBiT and SMARCA4 HiBiT Degradation Assay
(§2) HiBiT peptide knock-in of SMARCA2 in LgBiT expressing HEK293T cells was performed by CRISPR-mediated tagging system as described Promega. The homozygous HiBiT knock-in on c-terminus SMARCA2 was confirmed by sanger sequence. SMARCA2-HiBiT knock-in Hela monoclonal cell (CS302366) and SMARCA4-HiBiT knock-in Hela monoclonal cell (CS3023226) were purchased from Promega. The heterozygous HiBiT-knock-in was confirmed by sanger sequence in both SMARCA2-HiBiT and SMARCA4-HiBiT monoclonal cells.
(§3) SMARCA2 HiBiT and SMARCA4 HiBiT degradation assay in HeLa cells
(§4) Dispense 10 ul aliquot of prepared Hela-SMARCA2-HiBiT or Hela-SMARCA4-HiBiT cells (1:1 ratio of cells:Trypan Blue (#1450013, Bio-Rad)) onto cell counting slide (#145-0011, Bio-Rad) and obtain cell density and cell viability using cell counter (TC20, Bio-Rad). Remove appropriate volume of resuspended cells from culture flask to accommodate 2500 cells/well @20 μL/well. Transfer Hela-HiBiT cells to 50 mL conical (#430290, Corning). Spin down at 1000 rpm for 5 min using tabletop centrifuge (SPINCHRON 15, Beckman). Discard supernatant and resuspend cell pellet in modified EMEM (#30-2003, ATCC) cell culture media containing 10% FBS (F2422-500ML, Sigma), and 1X Penicillin/Streptomycin (200 g/L) (30-002-CI, Corning) to a cell density of 125,000 cells/mL. Dispense 20 μLof resuspended Hela-HiBit cells per well in 384-well TC treated plate (#12-565-343, Thermo Scientific) using standard cassette (#50950372, Thermo Scientific) on Multidrop Combi (#5840310, Thermo Scientific) inside laminar flow cabinet.
(§5) Compounds were dissolved in DMSO to make 10 mM stock and 3-fold series dilutions were further conducted keeping the highest concentration 10 RM. Dispense test compounds onto plates using digital liquid dispenser (D300E, Tecan). Incubate plates in humidified tissue culture incubator @37° C. for 18 hours. Add 20 μL of prepared Nano-Glo® HiBiT Lytic detection buffer (N3050, Promega) to each well of 384-well plate using small tube cassette (#24073295, Thermo Scientific) on Multidrop Combi, incubate @ RT for 30-60 min. Read plates on microplate reader (Envision 2105, PerkinElmer) using 384 well Ultra-Sensitive luminescence mode. Raw data files and compound information reports are swept into centralized data lake and deconvoluted using automated scripts designed by TetraScience, Inc. Data analysis, curve-fitting and reporting done in Dotmatics Informatics Suite using Screening Ultra module.
(§6) In Table 1, A=DC50<0.1 RM; B=0.1 μM≤DC50<1 μM and C=DC50>1 μM. In Table 4, A=Dmax>75% and B=50%<Dmax<75% and C=Dmax<50%.

SMARCA4 = target: T2, SMARCA4 (Homo sapiens, UniProt P51532); assay: SMARCA4 HiBiT degradation assay in HeLa cells; format: cell-based; settings: 18 hours incubation, Nano-Glo HiBiT Lytic detection
T2 construct: SMARCA2-HiBiT knock-in Hela monoclonal cell (CS302366) and SMARCA4-HiBiT knock-in Hela monoclonal cell (CS3023226) were purchased from Promega; host or cells: HeLa SMARCA4-HiBiT knock-in monoclonal cells (heterozygous knock-in)
T2 sequence (P51532 whole entry): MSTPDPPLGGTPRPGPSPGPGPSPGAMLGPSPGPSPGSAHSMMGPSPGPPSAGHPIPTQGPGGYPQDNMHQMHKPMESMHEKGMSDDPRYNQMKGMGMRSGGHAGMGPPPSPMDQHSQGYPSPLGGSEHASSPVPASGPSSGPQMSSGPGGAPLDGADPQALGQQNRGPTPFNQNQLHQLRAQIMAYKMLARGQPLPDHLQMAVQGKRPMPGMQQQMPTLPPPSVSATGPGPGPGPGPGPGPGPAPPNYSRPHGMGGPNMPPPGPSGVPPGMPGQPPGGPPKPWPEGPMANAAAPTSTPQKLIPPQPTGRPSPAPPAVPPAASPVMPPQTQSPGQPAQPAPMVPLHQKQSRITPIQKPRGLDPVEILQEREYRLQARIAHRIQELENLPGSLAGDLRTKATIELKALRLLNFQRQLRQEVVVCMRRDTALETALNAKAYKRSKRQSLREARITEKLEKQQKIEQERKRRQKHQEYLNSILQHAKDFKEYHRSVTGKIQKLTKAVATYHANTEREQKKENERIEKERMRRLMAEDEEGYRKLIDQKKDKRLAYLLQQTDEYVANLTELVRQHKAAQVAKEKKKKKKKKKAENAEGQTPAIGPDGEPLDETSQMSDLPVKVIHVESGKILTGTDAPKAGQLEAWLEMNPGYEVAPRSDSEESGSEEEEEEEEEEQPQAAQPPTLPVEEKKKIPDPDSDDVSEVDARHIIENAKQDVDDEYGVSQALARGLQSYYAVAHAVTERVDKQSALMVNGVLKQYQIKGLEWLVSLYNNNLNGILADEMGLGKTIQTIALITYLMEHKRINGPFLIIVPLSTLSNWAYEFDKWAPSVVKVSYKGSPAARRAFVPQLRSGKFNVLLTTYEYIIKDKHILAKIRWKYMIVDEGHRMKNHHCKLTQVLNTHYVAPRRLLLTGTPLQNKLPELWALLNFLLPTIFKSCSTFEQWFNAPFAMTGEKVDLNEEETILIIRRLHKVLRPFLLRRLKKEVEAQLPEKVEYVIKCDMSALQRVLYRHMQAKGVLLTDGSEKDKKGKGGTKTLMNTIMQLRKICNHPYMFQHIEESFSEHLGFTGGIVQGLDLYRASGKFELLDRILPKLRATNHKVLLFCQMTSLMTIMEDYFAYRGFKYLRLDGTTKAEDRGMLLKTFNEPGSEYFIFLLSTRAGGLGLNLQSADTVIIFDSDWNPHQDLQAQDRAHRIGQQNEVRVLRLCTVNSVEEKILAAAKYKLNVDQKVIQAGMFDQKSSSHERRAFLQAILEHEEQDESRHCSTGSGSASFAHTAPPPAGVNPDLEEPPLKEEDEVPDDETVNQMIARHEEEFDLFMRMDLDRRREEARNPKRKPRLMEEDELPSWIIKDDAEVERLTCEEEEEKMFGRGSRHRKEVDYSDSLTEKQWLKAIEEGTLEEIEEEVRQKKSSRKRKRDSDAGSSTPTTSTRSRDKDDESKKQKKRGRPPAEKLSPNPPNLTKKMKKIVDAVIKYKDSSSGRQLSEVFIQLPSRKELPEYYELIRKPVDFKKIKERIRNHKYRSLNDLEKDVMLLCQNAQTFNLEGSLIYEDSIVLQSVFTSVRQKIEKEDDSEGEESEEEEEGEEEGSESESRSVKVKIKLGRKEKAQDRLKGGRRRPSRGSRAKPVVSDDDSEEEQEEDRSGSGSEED
Procedure: as §1, §2, §3, §4, §5, §6

DC50 (SMARCA2) [nM]	Dmax (SMARCA2) [%]	DC50 (SMARCA4) [nM]	Dmax (SMARCA4) [%]	SMILES	effects on cell proliferation inhibition [1]
–	–	–	–	O=C(/C=C/N1C[C@H]2C[C@@H]1CN2c1ccccn1)c1ccccc1O [PFI-3]	none to minor effects
< 100	> 75	< 100	> 75	CC[C@]12CNc3nnc(-c4ccccc4O)cc3N1C[C@H](Oc1ccc(CN3CCN(c4ccc(NC5CCC(=O)NC5=O)cc4F)CC3)cn1)C2 (stereo partly drawn) [Example 11, 3-((4-(4-((6-(((6aS,8R)-6a-ethyl-2-(2-hydroxyphenyl)-5,6,6a,7,8,9-hexahydro-pyrrolo[1′,2′:4,5]pyrazino[2,3-c]pyridazin-8-yl)oxy)pyridin-3-yl)methyl)piperazin-1-yl)-3-fluorophenyl)amino)piperidine-2,6-dione]	–
< 100	50 to 75	100 to 1000	< 50	C[C@@H]1CN(CC2CCN(c3ccc4c(=O)n(C5CCC(=O)NC5=O)ncc4c3)CC2)C[C@H](C)N1C(=O)N1CCN2c3cc(-c4ccccc4O)nnc3NC[C@H]2C1 (stereo partly drawn) [Example 3, 3-(6-(4-(((3R,5S)-4-((S)-2-(2-hydroxyphenyl)-6,6a,7,8,9,10-hexahydro-5H-pyrazino[1′,2′:4,5]pyrazino[2,3-c]pyridazine-8-carbonyl)-3,5-dimethylpiperazin-1-yl)methyl)piperidin-1-yl)-1-oxophthalazin-2(1H)-yl)piperidine-2,6-dione]	–
< 100	50 to 75	< 100	> 75	O=C1CCC(c2ccc(C3CCN(Cc4ccc(O[C@H]5CN6c7cc(-c8ccccc8O)nnc7NC[C@@]6(C(F)F)C5)nc4)CC3)cc2)C(=O)N1 (stereo partly drawn) [Example 15, 3-(4-(1-((6-(((6aR,8R)-6a-(difluoromethyl)-2-(2-hydroxyphenyl)-5,6,6a,7,8,9-hexahydropyrrolo[1′,2′:4,5]pyrazino[2,3-c]pyridazin-8-yl)oxy)pyridin-3-yl)methyl)piperidin-4-yl)phenyl)piperidine-2,6-dione]	–

Reference: patent publication US20240190886A1, “BRM Targeting Compounds and Associated Methods of Use” (Prelude Therapeutics Incorporated, priority 2022, published 2024)
